Values quoted from earlier work in patent US12251425B2, “Sustained-release lipid preformulation and pharmaceutical composition for sustained-release injection in form of lipid solution containing same” (IMDPHARM INC., priority 2019, dated 2025).

Details: 25° C.

sorbitan monooleate
viscosity: about 1000 mPa·s
